What is called MIC is the least concentration at which growth counts as inhibited. Usually HC50 stands for the concentration giving 50% haemolysis.

In data set [1] the test system is Staphylococcus aureus ATCC 29213. In kind it is cell-based. An excerpt:
(§1) Analogs were serially diluted two-fold from stock solutions.

The test system of data set [2] is Staphylococcus aureus ATCC 43300. Format: cell-based. The following applies: for MIC: ATCC 43300; for fold decrease in activity against the methicillin-resistant strain: MIC against MRSA ATCC 43300 compared with MSSA ATCC 29213.
Source text: as §1

Data set [3] concerns Bacillus subtilis ATCC 23857. Description: MIC, broth microdilution. In kind it is cell-based. The following applies: 37 °C, 18–20 h, triplicate.
Source text: as §1

The subject of data set [4] is Escherichia coli ATCC 25922. Nature of the data set: MIC, broth microdilution. The following applies: 37 °C, 18–20 h, triplicate. In kind it is cell-based.
Source text: as §1
In general terms: In broth dilution the organism is exposed to a series of concentrations in liquid medium.

Data set [5] has as its system Pseudomonas aeruginosa ATCC 27853. Nature of the data set: MIC, broth microdilution. Format: cell-based. To be noted: 37 °C, 18–20 h, triplicate.
Source text: as §1

In data set [6] the test system is Salmonella enterica ATCC 14028. Description: MIC, broth microdilution. To be noted: 37 °C, 18–20 h, triplicate. Format: cell-based.
Source text: as §1

The subject of another data set is S. aureus strain 4-171. Format: cell-based, Staphylococcus aureus. The following applies: broth microdilution, triplicate; isolate 4-171, resistance PEN-AMC-CEF-CTX-FOX.
Source text: as §1

The next data set has as its system S. aureus ATCC 29213. Description: growth kinetics. Format: cell-based, Staphylococcus aureus. The following applies: TSB, 37 °C, 6 h, OD 595 nm every 2 h, peptide at MIC, three independent experiments. As to the method: Figure 2 Growth kinetics of S. aureus ATCC 29213 in the presence of humimycin analogs 12R, 12S, 13R, and 13S. Cultures of S. aureus were treated with various concentrations (2 × MIC, MIC, ½ × MIC, and ¼ × MIC) of the peptides and their growth was monitored by measuring the optical density at 595 nm. The positive control consisted of an untreated S. aureus culture, while the negative control contained only the growth medium without bacterial inoculation. The data represents the mean ± standard deviation of three independent experiments.
The growth kinetics of S. aureus ATCC 29213 in presence of humimycin analogs 12R, 12S, 13R, and 13S was assessed on S. aureus cultures in TSB at 37 °C in the stationary phase. The overnight culture was then diluted 1:100 in fresh TSB to achieve an initial optical density at 600 nm (OD600) of approximately 0.05. Humimycin analogs were prepared at concentrations corresponding to 0.5×, 1×, and 2× the MIC. S. aureus cultures without any analog served as the positive control and culture media was the negative control. The treated and control cultures were incubated at 37 °C for a total duration of 6 h. Absorbance readings at 595 nm were recorded every 2 h using a microplate reader to monitor the bacterial growth. The OD595 values were then plotted against time to generate bacterial growth curves. To ensure reproducibility, all experiments were performed in triplicate, with results expressed in a graph as mean ± standard deviation.

The next data set relates to human red blood cells. In kind it is cell-based. The following applies: red cells of human, 1 h. As to the method:
Figure 3 The hemolytic activity of synthetic humimycin analogs 12R, 12S, 13R, and 13S on human erythrocytes. Positive control: 0.2% Triton X-100 in PBS, negative control: PBS. The data represent the mean ± standard deviation of three independent experiments.
Hemolytic potential of the humimycin analogs 12R, 12S, 13R, and 13S, was evaluated by exposing fresh, uninfected red blood cells (RBCs) to 16 two-fold serial dilutions of each analog, ranging from 512 μg/mL to 0.015 μg/mL, in RPMI-1640 medium supplemented with HEPES and containing a maximum of 0.5% dimethyl sulfoxide (DMSO). The assay was performed in round-bottom 96-well plates at a final hematocrit of 1%. Mock control wells contained RBCs in RPMI-1640 with 1% DMSO, while 100% lysis control wells contained RBCs in RPMI-1640 with 1% DMSO and 1% Triton X-100. The plates were incubated for 1 h at 37 °C under a gassed atmosphere. Following incubation, the plates were centrifuged at 800× g for 5 min, and 100 μL of supernatant from each well was transferred to a clean flat-bottom 96-well plate. The absorbance of released hemoglobin in the supernatant was measured at 405 nm using a VICTOR plate reader (PerkinElmer). The percentage of hemolysis was calculated by comparing the absorbance of the supernatant from compound-treated RBCs to that of the mock control and 100% lysis control wells. All assays were performed in triplicates.

A short description of data set [7]: critical micelle concentration, Nile Red fluorescence. Format: physicochemical. The following applies: overnight equilibration, intersection of linear fits of fluorescence vs log concentration. As to the method:
Figure 4 CMC measurements of synthetic humimycin analogs 12R, 12S, 13R, and 13S. The CMC is the concentration at the intersection of the linear fits to the fluorescence intensity against log 10 concentration of peptide. Black circle: monomer; red circle: micelle.
The CMC of synthesized analogs 12R, 12S, 13R, and 13S was determined using the Nile Red fluorescence method, which takes advantage of the dye’s enhanced fluorescence emission in hydrophobic environments. A 500 μM stock solution of Nile Red was prepared in DMSO. Aliquots of 10 μL of this stock solution were added to each well and kept in the dark. Peptide solutions (200 μL) at various concentrations were then added to the well and allowed to equilibrate with the Nile Red overnight. Fluorescence emission spectra were recorded from 485 nm to 636 nm on a SpectraMax i3 spectrofluorometer with an excitation and emission bandwidth 9 nm and 15 nm, respectively. The ratio of the emission intensity was calculated for each peptide concentration and plotted against the logarithm of the peptide concentration. The CMC was determined from the intersection of the linear fits to the data points below and above the transition region in the plot. Tween-20 was used as positive control.

In brackets after ≈: the same amount, converted by molar mass. Non-standard residues stand in square brackets, D forms with d. Residues, ends and D or L forms follow the SMILES beside them. *: point of attachment. Tetradecanoyl(3R-OH) = CCCCCCCCCCC[C@@H](O)CC(=O)*; Tetradecanoyl(3S-OH) = CCCCCCCCCCC[C@H](O)CC(=O)*

In the case of `CCCCCCCCCCC[C@@H](O)CC(=O)N[C@@H](Cc1c[nH]c2ccccc12)C(=O)N[C@@H](CO)C(=O)N[C@H](Cc1c[nH]c2ccccc12)C(=O)N[C@@H](Cc1ccccc1)C(=O)N[C@@H](C(=O)N[C@H](C(=O)N[C@H](C(=O)O)C(C)C)C(C)C)[C@H](C)O` [12R] ({Tetradecanoyl(3R-OH)}-WS[dW]F[dT]VV-OH), the MIC in data set [1] is 16 µg/mL (≈ 13.9 µM); in [2], 16 µg/mL (≈ 13.9 µM); in [3], “- (No antimicrobial activity was detected up to 256 µg/mL)”; in data set [4] it was “- (No antimicrobial activity was detected up to 256 µg/mL)”; in data set [5], “- (No antimicrobial activity was detected up to 256 µg/mL)”; in data set [6], “- (No antimicrobial activity was detected up to 256 µg/mL)”. In the data set on S. aureus strain 4-171, this compound gave an MIC of 2 µg/mL (≈ 1.74 µM). Further, in the data set with S. aureus ATCC 29213, the “effect on bacterial growth at MIC” value is recorded as “effectively inhibited the growth”. The compound also came in with an HC50 with human red blood cells of 44.8 µg/mL. Further, the CMC entry in data set [7] was “approximately 60 μg/mL”.
As for `CCCCCCCCCCC[C@H](O)CC(=O)N[C@@H](Cc1c[nH]c2ccccc12)C(=O)N[C@@H](CO)C(=O)N[C@H](Cc1c[nH]c2ccccc12)C(=O)N[C@@H](Cc1ccccc1)C(=O)N[C@@H](C(=O)N[C@H](C(=O)N[C@H](C(=O)O)C(C)C)C(C)C)[C@H](C)O` [12S] ({Tetradecanoyl(3S-OH)}-WS[dW]F[dT]VV-OH), the MIC in data set [1] was 8 µg/mL (≈ 6.95 µM); in [2], 16 µg/mL (≈ 13.9 µM); in data set [3], “- (No antimicrobial activity was detected up to 256 µg/mL)”; in data set [4] it was “- (No antimicrobial activity was detected up to 256 µg/mL)”; in [5], “- (No antimicrobial activity was detected up to 256 µg/mL)”; in data set [6] it was “- (No antimicrobial activity was detected up to 256 µg/mL)”. In the data set on S. aureus strain 4-171, the MIC is 1 µg/mL (≈ 0.869 µM). The “effect on bacterial growth at MIC” value in the data set on S. aureus ATCC 29213 is listed as “effectively inhibited the growth”. This compound also displayed an HC50 in the data set with human red blood cells of 60.8 µg/mL. In [7], this compound returned a CMC of around 70 µg/mL.
As for `CCCCCCCCCCC[C@@H](O)CC(=O)N[C@@H](Cc1c[nH]c2ccccc12)C(=O)N[C@@H](CO)C(=O)N[C@H](Cc1c[nH]c2ccccc12)C(=O)N[C@@H](Cc1ccccc1)C(=O)N[C@@H](C(=O)N[C@@H](C)C(=O)N[C@H](C(=O)O)C(C)C)[C@H](C)O` [13R] ({Tetradecanoyl(3R-OH)}-WS[dW]F[dT]AV-OH), the MIC in [1] is reported as 4 µg/mL (≈ 3.56 µM); in data set [2], 128 µg/mL (≈ 114 µM); in [3], “- (No antimicrobial activity was detected up to 256 µg/mL)”; in [4] it was “- (No antimicrobial activity was detected up to 256 µg/mL)”; in data set [5], “- (No antimicrobial activity was detected up to 256 µg/mL)”; in [6], “- (No antimicrobial activity was detected up to 256 µg/mL)”. The compound further showed a minimal inhibitory concentration (MIC) with S. aureus strain 4-171 of 0.5 µg/mL (≈ 0.445 µM). The “fold decrease in activity against the methicillin-resistant strain” value in data set [2] was determined as 32 fold. In addition, the “effect on bacterial growth at MIC” value with S. aureus ATCC 29213 is “effectively inhibited the growth”. The same compound displayed an HC50 in the data set on human red blood cells of 76.8 µg/mL. Also, the CMC in [7] is around 12 µg/mL.
As for `CCCCCCCCCCC[C@H](O)CC(=O)N[C@@H](Cc1c[nH]c2ccccc12)C(=O)N[C@@H](CO)C(=O)N[C@H](Cc1c[nH]c2ccccc12)C(=O)N[C@@H](Cc1ccccc1)C(=O)N[C@@H](C(=O)N[C@@H](C)C(=O)N[C@H](C(=O)O)C(C)C)[C@H](C)O` [13S] ({Tetradecanoyl(3S-OH)}-WS[dW]F[dT]AV-OH), the MIC in [1] is recorded as 2 µg/mL (≈ 1.78 µM); in data set [2], 64 µg/mL (≈ 57 µM); in data set [3], “- (No antimicrobial activity was detected up to 256 µg/mL)”; in data set [4], “- (No antimicrobial activity was detected up to 256 µg/mL)”; in data set [5], “- (No antimicrobial activity was detected up to 256 µg/mL)”; in [6], “- (No antimicrobial activity was detected up to 256 µg/mL)”. The compound further came in with an MIC against S. aureus strain 4-171 of 8 µg/mL (≈ 7.13 µM). For the same compound, in data set [2], the “fold decrease in activity against the methicillin-resistant strain” value is recorded as 32 fold. In addition, the “effect on bacterial growth at MIC” value with S. aureus ATCC 29213 is reported as “effectively inhibited the growth”. In the data set on human red blood cells, the HC50 is reported as 48 µg/mL. Besides, the CMC in data set [7] was around 40 µg/mL.

(Values after article PMC12024397, “Structure–Activity Study of the Antimicrobial Lipopeptide Humimycin A and Screening Against Multidrug-Resistant Staphylococcus aureus” (Antibiotics, 2025).)
